# Laboratory results from US10800791B2, “Triazole ACC inhibitors and uses thereof” (Gilead Apollo, LLC, priority 2015, dated 2020).
# Where two headings read alike, the source gives them in different places.
# Tests used:
# human (hACC2) = human (hACC2) (Homo sapiens, UniProt O00763); assay: In vitro ACC inhibition assay (ADP-Glo), hACC2; type: biochemical; conditions: 5 nM ACC2, 20 μM ATP, 20 μM acetyl-CoA
# Method: The detailed procedure is as follows. […] 10 μL ADP glo reagent was added. […] 20 μL kinase detection reagent was added.
# C. albicans = assay: Antifungal Activity Assay (broth microtiter MIC), C. albicans; type: cell-based, Candida albicans; conditions: 3 replicates, MIC recorded at 48 h; for MIC: Candida albicans, ATCC90028, 48 h, ATCC 90028, read-out: MIC, C. albicans ATCC 90028
# Method: (§1) Compounds of the present invention were evaluated in an Antifungal Activity Assay. An exemplary procedure for the assay, which measures the susceptibility of various Candida species to antifungal compounds, follows. Compounds to be tested (including fluconazole and amphotericin B) were dissolved in DMSO to obtain a solution having a concentration of 1 mg/mL. These stock solutions were sterile filtered using a 0.22 um nylon syringe filter, then diluted in sterile water to achieve a final concentration of 128 μg/mL.
# (§2) All species were grown from frozen stock by directly plating on to freshly prepared Sabouraud Dextrose agar (BD, Difco) and incubated overnight in ambient air at 35° C. for 24 h. A direct suspension was prepared in RPMI 1640+MOPS (Lonza, Biowhittaker) by taking individual colonies from the overnight cultures using sterile swabs soaked in sterile saline. The concentration of the suspension was determined using pre-determined standard curves. These suspensions were then diluted down to 5×10^3 CFU/mL to achieve a final concentration of 2.5×10^3 CFU/mL once added to the microtiter plate as per CLSI guidelines (M27-A3, Vol. 28 No. 14).
# (§3) Broth microtiter MIC challenge plates were prepared following CLSI guidelines (M27-A3, Vol. 28 No. 14). The original CLSI guidelines focused on reading Candida MICs after 48 h of incubation. As reading after only 24 h offers a clear advantage of patient care, QC limits are being established for all drugs at 24 h. That being said there are no known interpretive breakpoints for amphotericin B at 24 h and the current fluconazole interpretive breakpoints are based on a 48 h reading. The MICs for the test compounds were recorded at 48 h. All MIC determinations were achieved by visually comparing the growth found in the antibiotic challenged wells to that of the growth control.
# C. krusei = assay: Antifungal Activity Assay (broth microtiter MIC), C. krusei; type: cell-based, Candida krusei; conditions: 3 replicates, MIC recorded at 48 h; for MIC: Pichia kudriavzevii, ATCC6258, 48 h, ATCC 6258, read-out: MIC, C. krusei ATCC 6258
# Method: as §1, §2, §3
# C. parapsilosis = assay: Antifungal Activity Assay (broth microtiter MIC), C. parapsilosis; type: cell-based, Candida parapsilosis; conditions: 3 replicates, MIC recorded at 48 h; for MIC: Lodderomyces parapsilosis, ATCC22019, 48 h, ATCC 22019, read-out: MIC, C. parapsilosis ATCC 22019
# Method: as §1, §2, §3
# fungal (fACC2) = fungal (fACC2) (UniProt Q00955); conditions: read-out: fACC2 (in vitro ACC2 Inhibition Assay, IC50), ADP-Glo, 5 nM ACC2, 20 μM ATP, 20 μM acetyl-CoA
# fungal (fACC2), sequence (Q00955 whole entry): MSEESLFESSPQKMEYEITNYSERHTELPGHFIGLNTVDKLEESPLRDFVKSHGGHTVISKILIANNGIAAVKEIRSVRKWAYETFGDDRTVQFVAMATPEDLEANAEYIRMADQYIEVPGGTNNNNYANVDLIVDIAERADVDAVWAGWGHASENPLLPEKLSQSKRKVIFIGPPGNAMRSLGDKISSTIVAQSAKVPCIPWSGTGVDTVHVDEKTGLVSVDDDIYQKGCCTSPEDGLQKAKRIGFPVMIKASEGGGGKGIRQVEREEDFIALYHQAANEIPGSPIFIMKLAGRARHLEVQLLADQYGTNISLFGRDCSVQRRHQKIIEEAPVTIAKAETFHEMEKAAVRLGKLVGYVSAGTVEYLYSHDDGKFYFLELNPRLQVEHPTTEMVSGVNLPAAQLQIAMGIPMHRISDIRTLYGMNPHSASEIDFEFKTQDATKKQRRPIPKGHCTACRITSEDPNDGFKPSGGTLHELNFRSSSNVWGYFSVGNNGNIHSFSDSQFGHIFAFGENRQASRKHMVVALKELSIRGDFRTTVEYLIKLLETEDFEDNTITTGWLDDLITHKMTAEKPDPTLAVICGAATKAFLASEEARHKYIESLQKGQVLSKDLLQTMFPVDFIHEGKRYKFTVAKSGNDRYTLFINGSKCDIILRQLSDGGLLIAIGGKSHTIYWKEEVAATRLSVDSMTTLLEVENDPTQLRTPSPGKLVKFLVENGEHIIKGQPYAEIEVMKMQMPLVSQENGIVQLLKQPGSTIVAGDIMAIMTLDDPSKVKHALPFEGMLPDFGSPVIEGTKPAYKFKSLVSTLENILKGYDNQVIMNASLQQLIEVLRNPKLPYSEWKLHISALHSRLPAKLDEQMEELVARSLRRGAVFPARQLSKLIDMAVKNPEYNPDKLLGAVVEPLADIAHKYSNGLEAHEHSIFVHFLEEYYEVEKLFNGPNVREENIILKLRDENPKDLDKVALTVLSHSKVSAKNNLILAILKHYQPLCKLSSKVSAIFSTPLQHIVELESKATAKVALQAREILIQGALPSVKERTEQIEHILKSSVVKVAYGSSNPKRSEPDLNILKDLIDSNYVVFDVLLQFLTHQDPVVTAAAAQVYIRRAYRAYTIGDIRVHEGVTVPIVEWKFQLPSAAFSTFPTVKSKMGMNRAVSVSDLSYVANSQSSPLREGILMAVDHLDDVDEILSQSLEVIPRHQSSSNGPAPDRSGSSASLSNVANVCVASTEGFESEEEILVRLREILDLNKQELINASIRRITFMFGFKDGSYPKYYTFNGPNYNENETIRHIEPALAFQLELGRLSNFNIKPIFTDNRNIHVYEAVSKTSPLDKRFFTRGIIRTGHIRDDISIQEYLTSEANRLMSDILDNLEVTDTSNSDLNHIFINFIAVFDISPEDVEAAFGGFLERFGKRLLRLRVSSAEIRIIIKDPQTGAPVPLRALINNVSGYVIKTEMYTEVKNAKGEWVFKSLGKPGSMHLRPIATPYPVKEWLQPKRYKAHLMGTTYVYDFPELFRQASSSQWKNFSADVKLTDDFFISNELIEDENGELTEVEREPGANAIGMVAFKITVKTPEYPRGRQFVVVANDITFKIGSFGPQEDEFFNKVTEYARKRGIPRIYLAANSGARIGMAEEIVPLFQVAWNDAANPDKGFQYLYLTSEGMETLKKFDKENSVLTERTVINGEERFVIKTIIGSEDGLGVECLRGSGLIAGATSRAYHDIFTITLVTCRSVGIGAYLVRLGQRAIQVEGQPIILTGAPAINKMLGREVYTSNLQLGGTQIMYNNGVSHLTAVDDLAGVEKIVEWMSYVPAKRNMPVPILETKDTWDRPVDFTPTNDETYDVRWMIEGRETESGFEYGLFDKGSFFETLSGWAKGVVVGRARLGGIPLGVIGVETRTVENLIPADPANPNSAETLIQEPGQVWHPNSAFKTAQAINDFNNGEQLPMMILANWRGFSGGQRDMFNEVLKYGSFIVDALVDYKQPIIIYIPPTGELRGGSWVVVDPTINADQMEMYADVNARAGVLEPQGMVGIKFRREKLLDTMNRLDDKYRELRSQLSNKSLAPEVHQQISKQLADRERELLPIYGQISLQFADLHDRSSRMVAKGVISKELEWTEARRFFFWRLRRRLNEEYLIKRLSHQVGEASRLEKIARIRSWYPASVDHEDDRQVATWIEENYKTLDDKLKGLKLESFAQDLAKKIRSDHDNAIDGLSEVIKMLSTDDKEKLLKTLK
# human (hACC2), sequence (O00763 whole entry): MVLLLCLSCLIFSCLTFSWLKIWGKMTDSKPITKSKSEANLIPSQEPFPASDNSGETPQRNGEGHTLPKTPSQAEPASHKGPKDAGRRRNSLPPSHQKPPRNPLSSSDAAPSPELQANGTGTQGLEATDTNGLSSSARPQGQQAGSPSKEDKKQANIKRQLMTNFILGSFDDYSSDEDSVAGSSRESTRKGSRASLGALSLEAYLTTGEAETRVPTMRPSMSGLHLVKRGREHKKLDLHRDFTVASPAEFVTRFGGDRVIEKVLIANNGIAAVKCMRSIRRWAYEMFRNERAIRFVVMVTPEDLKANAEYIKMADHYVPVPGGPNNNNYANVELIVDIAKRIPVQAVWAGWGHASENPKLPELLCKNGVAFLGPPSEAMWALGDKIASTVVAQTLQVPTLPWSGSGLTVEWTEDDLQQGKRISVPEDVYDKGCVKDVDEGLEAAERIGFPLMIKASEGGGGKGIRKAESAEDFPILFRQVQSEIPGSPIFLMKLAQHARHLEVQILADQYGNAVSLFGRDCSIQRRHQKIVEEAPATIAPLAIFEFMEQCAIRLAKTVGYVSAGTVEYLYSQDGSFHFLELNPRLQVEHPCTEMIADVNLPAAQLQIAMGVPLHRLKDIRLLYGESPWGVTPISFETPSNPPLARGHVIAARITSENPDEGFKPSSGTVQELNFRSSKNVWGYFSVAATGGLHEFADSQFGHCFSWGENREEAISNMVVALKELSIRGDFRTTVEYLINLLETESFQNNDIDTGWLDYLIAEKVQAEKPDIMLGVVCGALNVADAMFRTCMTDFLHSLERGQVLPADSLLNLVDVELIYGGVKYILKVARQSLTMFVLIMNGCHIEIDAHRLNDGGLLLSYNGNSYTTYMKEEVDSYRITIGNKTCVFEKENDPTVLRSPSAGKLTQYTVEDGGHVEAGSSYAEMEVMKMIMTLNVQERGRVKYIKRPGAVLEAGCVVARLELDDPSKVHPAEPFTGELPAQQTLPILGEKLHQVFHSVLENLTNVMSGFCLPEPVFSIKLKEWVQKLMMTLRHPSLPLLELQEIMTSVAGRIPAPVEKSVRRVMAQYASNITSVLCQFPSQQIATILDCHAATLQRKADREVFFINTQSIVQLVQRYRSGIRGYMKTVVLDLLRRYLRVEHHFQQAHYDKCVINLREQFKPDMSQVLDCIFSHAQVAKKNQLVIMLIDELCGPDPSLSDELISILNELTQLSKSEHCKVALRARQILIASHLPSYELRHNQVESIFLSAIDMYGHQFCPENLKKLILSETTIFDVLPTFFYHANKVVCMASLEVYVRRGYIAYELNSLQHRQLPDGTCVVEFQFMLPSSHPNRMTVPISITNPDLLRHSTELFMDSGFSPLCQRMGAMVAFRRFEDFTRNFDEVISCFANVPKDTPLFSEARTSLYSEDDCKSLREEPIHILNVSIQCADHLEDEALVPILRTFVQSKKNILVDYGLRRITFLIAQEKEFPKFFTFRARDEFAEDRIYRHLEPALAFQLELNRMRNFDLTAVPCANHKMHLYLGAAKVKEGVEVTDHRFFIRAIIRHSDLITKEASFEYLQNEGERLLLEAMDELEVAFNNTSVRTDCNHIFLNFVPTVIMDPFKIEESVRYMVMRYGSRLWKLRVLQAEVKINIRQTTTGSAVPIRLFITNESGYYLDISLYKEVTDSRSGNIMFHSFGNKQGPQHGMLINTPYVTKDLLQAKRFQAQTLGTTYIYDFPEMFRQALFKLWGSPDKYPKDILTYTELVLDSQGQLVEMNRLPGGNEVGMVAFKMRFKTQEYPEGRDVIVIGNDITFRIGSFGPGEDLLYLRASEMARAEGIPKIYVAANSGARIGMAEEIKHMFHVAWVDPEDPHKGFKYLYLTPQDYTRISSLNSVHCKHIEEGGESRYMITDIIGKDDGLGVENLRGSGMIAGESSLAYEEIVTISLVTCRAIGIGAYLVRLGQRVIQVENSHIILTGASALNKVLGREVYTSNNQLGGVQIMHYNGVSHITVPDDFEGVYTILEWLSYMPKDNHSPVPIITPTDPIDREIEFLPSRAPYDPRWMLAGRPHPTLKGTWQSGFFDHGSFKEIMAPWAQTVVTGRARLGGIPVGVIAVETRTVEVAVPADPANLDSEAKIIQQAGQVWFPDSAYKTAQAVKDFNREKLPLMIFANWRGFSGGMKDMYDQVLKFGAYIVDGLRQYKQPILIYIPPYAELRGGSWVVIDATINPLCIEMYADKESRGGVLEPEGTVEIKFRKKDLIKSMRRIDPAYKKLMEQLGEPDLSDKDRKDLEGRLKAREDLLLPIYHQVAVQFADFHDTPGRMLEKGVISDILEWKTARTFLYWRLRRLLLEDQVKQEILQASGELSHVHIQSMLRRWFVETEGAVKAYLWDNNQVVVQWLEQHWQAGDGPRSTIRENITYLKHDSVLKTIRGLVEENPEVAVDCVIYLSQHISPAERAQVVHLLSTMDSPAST
Compound,IC50 (human (hACC2); Table 2a),"IC50 (human (hACC2); Table 2b, additional results)","MIC, C. albicans ATCC 90028 (C. albicans; Table 3a)","MIC, C. albicans ATCC 90028 (C. albicans; Table 3b (additional results))","MIC, C. krusei ATCC 6258 (C. krusei; Table 3a)","MIC, C. krusei ATCC 6258 (C. krusei; Table 3b (additional results))","MIC, C. parapsilosis ATCC 22019 (C. parapsilosis; Table 3a)","MIC, C. parapsilosis ATCC 22019 (C. parapsilosis; Table 3b (additional results))",IC50 (fungal (fACC2); Table 2a),"IC50 (fungal (fACC2); Table 2b, additional results)",MIC (C. albicans; Table 3a),MIC (C. albicans; Table 3b (additional results)),MIC (C. krusei; Table 3a),MIC (C. krusei; Table 3b (additional results)),MIC (C. parapsilosis; Table 3a),MIC (C. parapsilosis; Table 3b (additional results))
COCCO[C@@H](Cn1c(=O)n(C(C)(C)C(=O)NC2CCC2)c(=O)c2c(C)c(-n3nccn3)sc21)c1cc(F)ccc1OC [Compound I-102],1 to 5 nM,1 to 5 nM,A (MIC of 0.25-1.0 μg/mL),C (MIC of 2.01-4.0 μg/mL),A (MIC of 0.25-1.0 μg/mL),A (MIC of 0.25-1.0 μg/mL),A (MIC of 0.25-1.0 μg/mL),A (MIC of 0.25-1.0 μg/mL),1 to 5 nM,1 to 5 nM,,,,,,
COCCO[C@@H](Cn1c(=O)n(C(C)(C)C(=O)NC2CCCCC2)c(=O)c2c(C)c(-n3nccn3)sc21)c1cc(F)ccc1OC [Compound I-103],10 to 40 nM,10 to 40 nM,,,,,,,1 to 5 nM,1 to 5 nM,1.1 to 2 µg/mL,1.01 to 2 µg/mL,0.25 to 1 µg/mL,0.25 to 1 µg/mL,0.25 to 1 µg/mL,0.25 to 1 µg/mL
COc1ccc(F)cc1[C@H](Cn1c(=O)n(C(C)(C)C(=O)NC(C)C)c(=O)c2c(C)c(-n3nccn3)sc21)OCCC(C)=O [Compound I-104],1 to 5 nM,1 to 5 nM,,,,,,,1 to 5 nM,1 to 5 nM,0.25 to 1 µg/mL,0.25 to 1 µg/mL,0.06 to 0.24 µg/mL,0.25 to 1 µg/mL,0.25 to 1 µg/mL,0.25 to 1 µg/mL
COc1ccc(F)cc1[C@H](Cn1c(=O)n(C(C)(C)C(=O)NC2CCC2)c(=O)c2c(C)c(-n3nccn3)sc21)OCCC(C)=O [Compound I-105],1 to 5 nM,1 to 5 nM,,,,,,,0.4 to 1 nM,0.3 to 1 nM,0.25 to 1 µg/mL,1.01 to 2 µg/mL,0.06 to 0.24 µg/mL,0.25 to 1 µg/mL,0.25 to 1 µg/mL,0.25 to 1 µg/mL
COc1ccc(F)cc1[C@H](Cn1c(=O)n(C(C)(C)C(=O)NC2CCCCC2)c(=O)c2c(C)c(-n3nccn3)sc21)OCCC(C)=O [Compound I-106],5 to 10 nM,5 to 10 nM,,,,,,,1 to 5 nM,1 to 5 nM,1.1 to 2 µg/mL,1.01 to 2 µg/mL,0.25 to 1 µg/mL,0.25 to 1 µg/mL,0.25 to 1 µg/mL,0.25 to 1 µg/mL
Cc1c(-n2nccn2)sc2c1c(=O)n(C(C)(C)C(=O)NC(C)C)c(=O)n2C[C@H](OC1CCOCC1)c1cc(F)ccc1OCc1ccccc1 [Compound I-107],5 to 10 nM,5 to 10 nM,,,,,,,1 to 5 nM,1 to 5 nM,0.25 to 1 µg/mL,0.25 to 1 µg/mL,0.25 to 1 µg/mL,0.25 to 1 µg/mL,1.1 to 2 µg/mL,0.25 to 1 µg/mL
Cc1c(-n2nccn2)sc2c1c(=O)n(C(C)(C)C(=O)NC(C)C)c(=O)n2C[C@H](OC1CCOCC1)c1cc(F)ccc1OCC1COC1 [Compound I-108],1 to 5 nM,1 to 5 nM,,,,,,,1 to 5 nM,1 to 5 nM,0.25 to 1 µg/mL,0.25 to 1 µg/mL,0.25 to 1 µg/mL,0.25 to 1 µg/mL,0.25 to 1 µg/mL,0.25 to 1 µg/mL
COCCOc1ccc(F)cc1[C@H](Cn1c(=O)n(C(C)(C)C(=O)N2CCCC2)c(=O)c2c(C)c(-n3nccn3)sc21)OC1CCOCC1 [Compound I-109],1 to 5 nM,1 to 5 nM,,,,,,,1 to 5 nM,1 to 5 nM,0.25 to 1 µg/mL,0.25 to 1 µg/mL,0.25 to 1 µg/mL,1.01 to 2 µg/mL,0.25 to 1 µg/mL,1.01 to 2 µg/mL
Cc1c(-n2nccn2)sc2c1c(=O)n(C(C)(C)C(=O)N1CCCC1)c(=O)n2C[C@H](OC1CCOCC1)c1cc(F)ccc1OCC1COC1 [Compound I-110],5 to 10 nM,5 to 10 nM,,,,,,,1 to 5 nM,1 to 5 nM,0.25 to 1 µg/mL,0.25 to 1 µg/mL,0.25 to 1 µg/mL,1.01 to 2 µg/mL,0.25 to 1 µg/mL,1.01 to 2 µg/mL
Cc1c(-n2nccn2)sc2c1c(=O)n(C(C)(C)C(=O)NC(C)C)c(=O)n2C[C@H](OC1CCOCC1)c1cc(F)ccc1OCCO [Compound I-111],1 to 5 nM,1 to 5 nM,,,,,,,0.4 to 1 nM,0.3 to 1 nM,0.25 to 1 µg/mL,0.06 to 0.249 µg/mL,0.25 to 1 µg/mL,0.06 to 0.249 µg/mL,0.25 to 1 µg/mL,0.25 to 1 µg/mL
Cc1c(-n2nccn2)sc2c1c(=O)n(C(C)(C)C(=O)N1CCCC1)c(=O)n2C[C@H](OC1CCOCC1)c1cc(F)ccc1OCCO [Compound I-112],1 to 5 nM,1 to 5 nM,,,,,,,0.4 to 1 nM,0.3 to 1 nM,0.25 to 1 µg/mL,0.25 to 1 µg/mL,0.25 to 1 µg/mL,0.25 to 1 µg/mL,0.25 to 1 µg/mL,1.01 to 2 µg/mL
COc1ccc(F)cc1[C@H](Cn1c(=O)n(C(C)(C)C(=O)N2CCCC2)c(=O)c2c(C)c(-n3nccn3)sc21)OCC(O)C(F)(F)F (stereo partly drawn) [Compound I-113],1 to 5 nM,1 to 5 nM,,,,,,,1 to 5 nM,1 to 5 nM,0.25 to 1 µg/mL,> 4.01 µg/mL,0.25 to 1 µg/mL,2.01 to 4 µg/mL,1.1 to 2 µg/mL,1.01 to 2 µg/mL
C=CCN(C)C(=O)C(C)(C)n1c(=O)c2c(C)c(-n3nccn3)sc2n(C[C@H](OC(C)C)c2cc(F)ccc2OC)c1=O [Compound I-115],5 to 10 nM,5 to 10 nM,,,,,,,1 to 5 nM,1 to 5 nM,2.1 to 4 µg/mL,1.01 to 2 µg/mL,1.1 to 2 µg/mL,1.01 to 2 µg/mL,1.1 to 2 µg/mL,> 4.01 µg/mL
Cc1c(-n2nccn2)sc2c1c(=O)n(C(C)(C)C(=O)NC(C)C)c(=O)n2C[C@H](OC1CCOCC1)c1cc(F)ccc1OCC#N [Compound I-116],5 to 10 nM,5 to 10 nM,,,,,,,0.4 to 1 nM,0.3 to 1 nM,0.25 to 1 µg/mL,0.25 to 1 µg/mL,0.25 to 1 µg/mL,0.25 to 1 µg/mL,0.25 to 1 µg/mL,0.25 to 1 µg/mL
COc1ccc(F)cc1[C@H](Cn1c(=O)n(C(C)(C)C(=O)N2CC=CC2)c(=O)c2c(C)c(-n3nccn3)sc21)OC[C@H](C)O [Compound I-117],5 to 10 nM,5 to 10 nM,,,,,,,0.4 to 1 nM,0.3 to 1 nM,2.1 to 4 µg/mL,1.01 to 2 µg/mL,0.25 to 1 µg/mL,> 4.01 µg/mL,2.1 to 4 µg/mL,2.01 to 4 µg/mL
COc1ccc(F)cc1[C@H](Cn1c(=O)n(C(C)(C)C(=O)N2CCCC2)c(=O)c2c(C)c(-n3nccn3)sc21)OCCCO [Compound I-118],1 to 5 nM,1 to 5 nM,,,,,,,0.4 to 1 nM,0.3 to 1 nM,1.1 to 2 µg/mL,1.01 to 2 µg/mL,0.25 to 1 µg/mL,1.01 to 2 µg/mL,2.1 to 4 µg/mL,1.01 to 2 µg/mL
COc1ccc(F)cc1[C@H](Cn1c(=O)n(C(C)(C)C(=O)NC(C)C)c(=O)c2c(C)c(-n3nccn3)sc21)OCCCO [Compound I-119],1 to 5 nM,1 to 5 nM,,,,,,,0.4 to 1 nM,0.3 to 1 nM,0.25 to 1 µg/mL,0.25 to 1 µg/mL,0.06 to 0.24 µg/mL,0.25 to 1 µg/mL,0.25 to 1 µg/mL,0.25 to 1 µg/mL
C=CCNC(=O)C(C)(C)n1c(=O)c2c(C)c(-n3nccn3)sc2n(C[C@H](OC(C)C)c2cc(F)ccc2OC)c1=O [Compound I-120],5 to 10 nM,5 to 10 nM,,,,,,,1 to 5 nM,1 to 5 nM,0.25 to 1 µg/mL,1.01 to 2 µg/mL,0.25 to 1 µg/mL,0.25 to 1 µg/mL,0.25 to 1 µg/mL,2.01 to 4 µg/mL
